Results from paper PMC6576746, “Rational discovery of dual-indication multi-target PDE/Kinase inhibitor for precision anti-cancer therapy using structural systems pharmacology” (PLoS Computational Biology, 2019).

Assays:
Test in all cases: biochemical
Set-up in all cases: DiscoverX KinomeScan competition binding assay across human kinases; per cent of control at 10 and 100 uM
[1] = target: PAK3 (Homo sapiens, UniProt O75914); conditions: competition binding, % of control; read-out: Percent Control (100 uM Levosimendan)
Procedure, shortened: (§1)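 Binding is expressed as %control, normalised between positive and negative control signals. The compound (levosimendan) was tested at 10 μM and 100 μM in the DiscoverX KinomeScan competition binding format against human kinases.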

[2] = target: MAP3K1 (Homo sapiens, UniProt Q13233); conditions: competition binding, % of control; read-out: Percent Control (100 uM Levosimendan)
Chain of MAP3K1 (Q13233 whole entry): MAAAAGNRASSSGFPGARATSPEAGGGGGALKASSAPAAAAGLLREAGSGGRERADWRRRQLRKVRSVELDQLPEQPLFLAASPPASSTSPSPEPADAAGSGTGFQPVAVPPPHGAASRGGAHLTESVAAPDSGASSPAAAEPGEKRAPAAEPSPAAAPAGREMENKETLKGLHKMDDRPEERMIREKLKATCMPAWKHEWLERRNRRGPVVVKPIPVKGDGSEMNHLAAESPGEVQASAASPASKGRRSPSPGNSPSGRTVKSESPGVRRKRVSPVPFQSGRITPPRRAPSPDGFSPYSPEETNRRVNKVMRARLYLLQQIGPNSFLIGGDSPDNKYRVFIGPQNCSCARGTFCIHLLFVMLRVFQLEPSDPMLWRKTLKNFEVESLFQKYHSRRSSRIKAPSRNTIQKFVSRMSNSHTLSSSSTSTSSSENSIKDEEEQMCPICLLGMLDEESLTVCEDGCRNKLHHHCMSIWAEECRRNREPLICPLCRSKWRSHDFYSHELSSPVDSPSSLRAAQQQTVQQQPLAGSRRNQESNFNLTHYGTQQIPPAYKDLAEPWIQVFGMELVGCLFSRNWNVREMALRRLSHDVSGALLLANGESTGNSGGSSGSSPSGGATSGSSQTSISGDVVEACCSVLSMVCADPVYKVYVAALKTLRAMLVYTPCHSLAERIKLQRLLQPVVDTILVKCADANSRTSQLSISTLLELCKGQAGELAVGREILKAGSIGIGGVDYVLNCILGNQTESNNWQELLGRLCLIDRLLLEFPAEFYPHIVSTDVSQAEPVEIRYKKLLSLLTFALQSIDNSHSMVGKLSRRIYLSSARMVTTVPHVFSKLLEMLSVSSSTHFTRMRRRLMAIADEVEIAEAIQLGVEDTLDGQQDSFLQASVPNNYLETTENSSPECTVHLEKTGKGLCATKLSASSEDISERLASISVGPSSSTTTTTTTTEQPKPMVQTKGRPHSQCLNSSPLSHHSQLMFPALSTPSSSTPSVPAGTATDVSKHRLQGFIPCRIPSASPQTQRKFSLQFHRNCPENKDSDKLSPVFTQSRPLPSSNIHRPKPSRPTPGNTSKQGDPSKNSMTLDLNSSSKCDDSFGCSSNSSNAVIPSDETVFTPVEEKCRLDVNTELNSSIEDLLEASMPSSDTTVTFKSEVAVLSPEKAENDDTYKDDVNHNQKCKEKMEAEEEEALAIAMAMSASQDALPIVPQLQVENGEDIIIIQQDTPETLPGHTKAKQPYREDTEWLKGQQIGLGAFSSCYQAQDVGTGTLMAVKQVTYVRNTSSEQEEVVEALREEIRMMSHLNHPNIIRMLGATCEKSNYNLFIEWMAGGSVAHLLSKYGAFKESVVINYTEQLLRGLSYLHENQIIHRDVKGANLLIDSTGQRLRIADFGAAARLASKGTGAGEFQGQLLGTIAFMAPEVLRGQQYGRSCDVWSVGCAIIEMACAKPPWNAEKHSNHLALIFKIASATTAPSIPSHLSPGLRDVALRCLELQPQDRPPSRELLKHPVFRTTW
Procedure, shortened: as §1

[3] = target: CSNK2A2 (Homo sapiens, UniProt P19784); conditions: competition binding, % of control; read-out: Percent Control (100 uM Levosimendan)
Chain of CSNK2A2 (P19784 whole entry): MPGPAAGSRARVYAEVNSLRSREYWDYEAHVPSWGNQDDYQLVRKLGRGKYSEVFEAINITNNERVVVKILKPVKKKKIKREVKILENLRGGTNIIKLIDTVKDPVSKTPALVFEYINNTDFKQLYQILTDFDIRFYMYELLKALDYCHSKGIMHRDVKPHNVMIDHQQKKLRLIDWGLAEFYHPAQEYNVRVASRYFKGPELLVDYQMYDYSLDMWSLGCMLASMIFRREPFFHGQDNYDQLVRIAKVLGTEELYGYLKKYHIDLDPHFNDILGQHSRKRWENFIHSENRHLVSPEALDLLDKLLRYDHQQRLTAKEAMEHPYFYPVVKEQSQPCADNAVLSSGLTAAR
Procedure, shortened: as §1

[4] = target: T1, RIOK3 (Homo sapiens, UniProt O14730); conditions: competition binding, % of control
T1 sequence (O14730 1-519): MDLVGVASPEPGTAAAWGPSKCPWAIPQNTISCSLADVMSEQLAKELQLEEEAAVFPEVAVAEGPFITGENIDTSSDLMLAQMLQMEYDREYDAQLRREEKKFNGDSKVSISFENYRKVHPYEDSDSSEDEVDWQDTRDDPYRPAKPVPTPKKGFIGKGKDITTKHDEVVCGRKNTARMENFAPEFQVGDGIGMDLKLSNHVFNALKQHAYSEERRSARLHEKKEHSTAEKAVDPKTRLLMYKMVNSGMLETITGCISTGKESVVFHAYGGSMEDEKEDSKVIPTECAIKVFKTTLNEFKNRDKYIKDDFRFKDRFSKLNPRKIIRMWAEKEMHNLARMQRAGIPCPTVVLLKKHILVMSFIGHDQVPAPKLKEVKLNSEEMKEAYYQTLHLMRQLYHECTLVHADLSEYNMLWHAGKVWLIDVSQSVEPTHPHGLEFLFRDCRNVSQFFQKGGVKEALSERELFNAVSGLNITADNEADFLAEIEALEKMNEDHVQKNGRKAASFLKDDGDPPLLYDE
Procedure, shortened: as §1

[5] = target: PRKD1 (Homo sapiens, UniProt Q15139); conditions: competition binding, % of control; read-out: Percent Control (100 uM Levosimendan)
Procedure, shortened: as §1

[6] = target: PIKFYVE (Homo sapiens, UniProt Q9Y2I7); conditions: competition binding, % of control; read-out: Percent Control (100 uM Levosimendan)
Procedure, shortened: as §1

[7] = target: FGR (Homo sapiens, UniProt P09769); conditions: competition binding, % of control
Chain of FGR (P09769 whole entry): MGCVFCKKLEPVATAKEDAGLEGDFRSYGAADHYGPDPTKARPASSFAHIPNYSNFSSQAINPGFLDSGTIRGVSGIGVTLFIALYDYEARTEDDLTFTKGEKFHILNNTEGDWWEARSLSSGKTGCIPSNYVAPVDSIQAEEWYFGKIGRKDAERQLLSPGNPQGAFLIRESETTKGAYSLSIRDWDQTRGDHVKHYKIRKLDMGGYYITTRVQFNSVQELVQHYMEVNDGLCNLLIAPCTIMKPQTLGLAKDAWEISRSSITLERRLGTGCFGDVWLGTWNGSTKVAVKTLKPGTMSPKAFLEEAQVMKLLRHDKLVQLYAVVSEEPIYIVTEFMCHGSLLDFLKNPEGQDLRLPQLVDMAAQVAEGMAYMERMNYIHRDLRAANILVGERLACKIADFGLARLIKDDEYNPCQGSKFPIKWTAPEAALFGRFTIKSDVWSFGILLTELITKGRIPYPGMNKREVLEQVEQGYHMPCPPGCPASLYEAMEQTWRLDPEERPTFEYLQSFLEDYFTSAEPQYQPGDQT
Procedure, shortened: as §1

[8] = target: T2, LKB1 (Homo sapiens, UniProt Q15831); conditions: competition binding, % of control; read-out: Percent Control (100 uM Levosimendan)
T2 construct: gene STK11
T2 sequence (Q15831 whole entry): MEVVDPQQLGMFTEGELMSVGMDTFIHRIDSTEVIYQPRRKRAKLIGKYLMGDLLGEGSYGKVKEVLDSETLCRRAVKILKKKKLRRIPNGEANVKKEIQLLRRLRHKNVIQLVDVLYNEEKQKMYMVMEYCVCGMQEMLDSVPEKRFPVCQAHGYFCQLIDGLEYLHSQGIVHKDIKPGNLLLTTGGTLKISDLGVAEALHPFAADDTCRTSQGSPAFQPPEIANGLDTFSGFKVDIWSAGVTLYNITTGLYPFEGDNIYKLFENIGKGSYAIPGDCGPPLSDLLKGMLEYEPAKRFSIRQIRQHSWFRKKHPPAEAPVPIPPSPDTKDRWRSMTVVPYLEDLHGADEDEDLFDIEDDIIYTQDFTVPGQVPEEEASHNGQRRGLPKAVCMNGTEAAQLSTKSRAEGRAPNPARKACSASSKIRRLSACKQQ
Procedure, shortened: as §1

[9] = target: PIK3CA(H1047L) (Homo sapiens, UniProt P42336, H1047L); conditions: competition binding, % of control; read-out: Percent Control (100 uM Levosimendan)
Procedure, shortened: as §1

[10] = target: CAMK2G (Homo sapiens, UniProt Q13555); conditions: competition binding, % of control; read-out: Percent Control (100 uM Levosimendan)
Chain of CAMK2G (Q13555 whole entry): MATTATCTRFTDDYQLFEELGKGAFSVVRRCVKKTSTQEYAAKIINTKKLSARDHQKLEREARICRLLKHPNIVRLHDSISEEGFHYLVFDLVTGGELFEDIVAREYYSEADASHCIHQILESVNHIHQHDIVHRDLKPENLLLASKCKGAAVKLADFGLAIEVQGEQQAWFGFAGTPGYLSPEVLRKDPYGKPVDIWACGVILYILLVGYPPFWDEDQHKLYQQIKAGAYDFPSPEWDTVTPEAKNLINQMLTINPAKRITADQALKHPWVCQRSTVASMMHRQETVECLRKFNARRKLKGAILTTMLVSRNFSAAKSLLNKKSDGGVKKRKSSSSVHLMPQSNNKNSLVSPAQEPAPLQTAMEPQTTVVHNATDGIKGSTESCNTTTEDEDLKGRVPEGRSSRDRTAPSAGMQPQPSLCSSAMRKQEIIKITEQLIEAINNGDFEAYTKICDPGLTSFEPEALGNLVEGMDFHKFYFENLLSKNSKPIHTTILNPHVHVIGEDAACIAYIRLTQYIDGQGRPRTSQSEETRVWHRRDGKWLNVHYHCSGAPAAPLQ
Procedure, shortened: as §1

[11] = target: PDGFRB (Homo sapiens, UniProt P09619); conditions: competition binding, % of control
Chain of PDGFRB (P09619 whole entry): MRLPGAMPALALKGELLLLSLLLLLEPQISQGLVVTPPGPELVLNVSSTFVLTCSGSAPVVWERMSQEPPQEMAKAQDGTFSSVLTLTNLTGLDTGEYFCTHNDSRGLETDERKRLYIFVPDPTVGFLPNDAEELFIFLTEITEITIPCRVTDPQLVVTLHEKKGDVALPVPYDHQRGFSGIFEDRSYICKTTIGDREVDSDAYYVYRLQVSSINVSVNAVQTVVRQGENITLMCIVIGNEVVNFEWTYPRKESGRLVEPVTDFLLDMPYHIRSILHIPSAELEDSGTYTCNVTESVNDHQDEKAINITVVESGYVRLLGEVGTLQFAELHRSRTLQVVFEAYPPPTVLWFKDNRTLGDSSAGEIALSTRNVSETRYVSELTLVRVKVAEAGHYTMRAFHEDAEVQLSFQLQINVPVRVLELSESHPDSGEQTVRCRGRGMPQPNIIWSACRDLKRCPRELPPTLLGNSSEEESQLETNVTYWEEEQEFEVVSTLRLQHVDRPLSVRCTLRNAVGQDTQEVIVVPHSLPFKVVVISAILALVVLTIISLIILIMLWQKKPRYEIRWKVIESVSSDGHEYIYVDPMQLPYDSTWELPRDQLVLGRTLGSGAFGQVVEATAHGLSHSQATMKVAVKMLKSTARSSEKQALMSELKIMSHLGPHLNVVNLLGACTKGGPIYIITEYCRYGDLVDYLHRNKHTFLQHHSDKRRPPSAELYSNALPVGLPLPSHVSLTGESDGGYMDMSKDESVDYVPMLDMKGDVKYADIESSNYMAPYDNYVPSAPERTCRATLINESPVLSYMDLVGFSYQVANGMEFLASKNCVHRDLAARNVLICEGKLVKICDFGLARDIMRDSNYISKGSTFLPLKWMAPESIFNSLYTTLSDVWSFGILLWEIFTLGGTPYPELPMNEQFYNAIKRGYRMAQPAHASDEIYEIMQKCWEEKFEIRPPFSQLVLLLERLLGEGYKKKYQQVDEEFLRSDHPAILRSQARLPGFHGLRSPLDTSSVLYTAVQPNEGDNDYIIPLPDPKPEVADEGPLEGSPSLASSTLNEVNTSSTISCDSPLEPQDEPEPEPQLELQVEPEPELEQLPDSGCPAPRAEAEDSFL
Procedure, shortened: as §1

[12] = target: T3, ABL1(T315I)-phosphorylated (Homo sapiens, UniProt P00519, T315I); conditions: competition binding, % of control; read-out: Percent Control (100 uM Levosimendan)
T3 construct: phosphorylated
Procedure, shortened: as §1

[13] = target: SGK2 (Homo sapiens, UniProt Q9HBY8); conditions: competition binding, % of control; read-out: Percent Control (100 uM Levosimendan)
Chain of SGK2 (Q9HBY8 whole entry): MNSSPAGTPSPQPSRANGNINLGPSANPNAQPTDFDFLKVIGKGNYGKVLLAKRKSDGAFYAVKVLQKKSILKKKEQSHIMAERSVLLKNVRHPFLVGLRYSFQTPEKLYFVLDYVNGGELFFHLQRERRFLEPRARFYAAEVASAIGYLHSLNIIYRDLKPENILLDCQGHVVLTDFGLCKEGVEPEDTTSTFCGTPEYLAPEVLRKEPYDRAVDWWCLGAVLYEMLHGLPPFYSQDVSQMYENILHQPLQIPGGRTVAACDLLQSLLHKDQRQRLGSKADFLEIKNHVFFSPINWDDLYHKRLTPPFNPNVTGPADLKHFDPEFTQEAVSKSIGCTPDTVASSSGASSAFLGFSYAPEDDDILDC
Procedure, shortened: as §1

[14] = target: MAP4K4 (Homo sapiens, UniProt O95819); conditions: competition binding, % of control; read-out: Percent Control (100 uM Levosimendan)
Procedure, shortened: as §1

[15] = target: T4, ABL1(Y253F)-phosphorylated (Homo sapiens, UniProt P00519, Y253F); conditions: competition binding, % of control; read-out: Percent Control (100 uM Levosimendan)
T4 construct: phosphorylated
Procedure, shortened: as §1

[16] = read-out: Percent Control (10 uM Levosimendan)
[17] = read-out: Percent Control (100 uM Levosimendan)

- remaining binding at 100 µM [1]: 99%
- remaining binding at 100 µM [2]: 100%
- remaining binding at 100 µM [3]: 73%
- remaining binding at 10 µM [4, 16]: 15%
- remaining binding at 100 µM [4, 17]: 0%
- remaining binding at 100 µM [5]: 96%
- remaining binding at 100 µM [6]: 57%
- remaining binding at 10 µM [7, 16]: 100%
- remaining binding at 100 µM [7, 17]: 49%
- remaining binding at 100 µM [8]: 100%
- remaining binding at 100 µM [9]: 100%
- remaining binding at 100 µM [10]: 88%
- remaining binding at 10 µM [11, 16]: 58%
- remaining binding at 100 µM [11, 17]: 12%
- remaining binding at 100 µM [12]: 64%
- remaining binding at 100 µM [13]: 90%
- remaining binding at 100 µM [14]: 100%
- remaining binding at 100 µM [15]: 87%
Structure (SMILES): C[C@@H]1CC(=O)NN=C1c1ccc(NN=C(C#N)C#N)cc1 [levosimendan]
